# Measured values as given in US20070015828A1 (Wyeth, priority 2005, published 2007).
# Where two headings read alike, the source gives them in different places.
# Columns and labels:
# pH-Solubility = assay type: physicochemical; conditions: free base
# [1] = Solution Stability in aqueous solutions; assay type: physicochemical; conditions: room temperature, all aqueous solutions (pH 1.4-10.0)
# CACO-2 cells = experiment: Permeability assessment, HTS-24 CACO-2 model; assay type: in vitro ADME
# Experimental: The rate of drug transport through the CACO-2 cells was determined as the Apparent Permeability Coefficient according to the following formula:
# Papp=AQ X Rv cm.s- AT 60.A.Co
# ΔT=Change in time (minutes)
# Co=Initial concn in the donor chamber (mM.cm^−3)
# A=Surface area of membrane (cm^2)
# 60=Conversion factor to give cm.s^−1
# Rv=volume of receiver compartment.
# Transepithelial electrical resistance (TER) was calculated from resistance measurements according to the following formula: TER=(R[cells+filter+medium])−(R[filter+medium])×cell area.
# Apparent permeability rates were interpreted as follows. […] Apparent permeability values less than metoprolol or propranolol are considered to be ≦90% fa (moderate permeability classification). Apparent permeability values of <10 nms^−1 are considered to be ≦50% fa (low permeability classification). TER values of <120 ohms cm^2 indicate low monolayer integrity over the assay period.
# A compound/metoprolol or propranolol ratio of <1 indicates a moderate to low permeability compound.
# Adenosine A2A (hr) = Adenosine A2A (hr) (Homo sapiens, UniProt P29274); experiment: Receptor binding assay: Adenosine A2A; conditions: Test Compound @ 10 1 M
# Adenosine A2A (hr), sequence (P29274 whole entry): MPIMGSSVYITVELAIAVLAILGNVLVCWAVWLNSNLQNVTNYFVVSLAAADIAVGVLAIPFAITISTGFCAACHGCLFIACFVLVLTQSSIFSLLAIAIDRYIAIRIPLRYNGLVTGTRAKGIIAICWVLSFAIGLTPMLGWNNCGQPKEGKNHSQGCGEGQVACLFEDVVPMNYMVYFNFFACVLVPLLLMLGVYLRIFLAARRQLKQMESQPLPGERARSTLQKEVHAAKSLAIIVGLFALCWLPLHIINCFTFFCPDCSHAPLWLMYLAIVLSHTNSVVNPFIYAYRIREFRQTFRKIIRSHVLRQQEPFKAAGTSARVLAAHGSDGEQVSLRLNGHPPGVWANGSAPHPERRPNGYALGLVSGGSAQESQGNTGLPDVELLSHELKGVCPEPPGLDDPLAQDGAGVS
# Adrenergic, Alpha 1B = experiment: Receptor binding assay: Adrenergic Alpha 1B; conditions: Test Compound @ 10 1 M
# Adrenergic, Beta 1 (hr) = Adrenergic, Beta 1 (hr) (Homo sapiens, UniProt P08588); experiment: Receptor binding assay: Adrenergic Beta 1; conditions: Test Compound @ 10 1 M
# Adrenergic, Beta 1 (hr), sequence (P08588 whole entry): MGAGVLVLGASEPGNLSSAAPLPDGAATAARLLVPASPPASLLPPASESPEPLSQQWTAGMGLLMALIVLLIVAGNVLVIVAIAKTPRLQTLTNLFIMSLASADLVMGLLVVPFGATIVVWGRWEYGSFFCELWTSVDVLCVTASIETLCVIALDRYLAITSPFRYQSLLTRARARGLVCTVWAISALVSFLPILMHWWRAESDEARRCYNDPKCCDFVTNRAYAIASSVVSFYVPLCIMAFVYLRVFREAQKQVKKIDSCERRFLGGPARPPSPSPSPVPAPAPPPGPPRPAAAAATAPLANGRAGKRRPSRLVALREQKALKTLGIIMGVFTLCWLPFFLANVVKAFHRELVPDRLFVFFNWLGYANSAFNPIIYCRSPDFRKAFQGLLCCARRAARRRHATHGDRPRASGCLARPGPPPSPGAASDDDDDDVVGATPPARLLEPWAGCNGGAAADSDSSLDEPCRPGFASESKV
# Cannabinoid, CB2 (hr) = Cannabinoid, CB2 (hr) (Homo sapiens, UniProt P34972); experiment: Receptor binding assay: Cannabinoid CB2; conditions: Test Compound @ 10 1 M
# Cannabinoid, CB2 (hr), sequence (P34972 whole entry): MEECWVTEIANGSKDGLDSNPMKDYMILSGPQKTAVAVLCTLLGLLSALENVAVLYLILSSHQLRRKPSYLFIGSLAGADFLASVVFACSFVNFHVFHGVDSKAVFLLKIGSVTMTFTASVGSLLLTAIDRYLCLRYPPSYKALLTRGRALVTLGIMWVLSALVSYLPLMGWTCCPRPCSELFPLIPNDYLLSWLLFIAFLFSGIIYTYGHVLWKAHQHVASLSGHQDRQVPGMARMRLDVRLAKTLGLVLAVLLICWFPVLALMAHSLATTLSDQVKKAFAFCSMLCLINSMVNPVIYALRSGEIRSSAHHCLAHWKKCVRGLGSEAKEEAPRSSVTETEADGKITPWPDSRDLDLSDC
# Glutamate, Kainate Site = experiment: Receptor binding assay: Glutamate Kainate site; conditions: Test Compound @ 10 1 M
# [2] = system: Glycine, Strychnine-sensitive; experiment: Receptor binding assay: Glycine strychnine-sensitive; conditions: Test Compound @ 10 1 M
# Imidazoline, I1 = experiment: Imidazoline binding assay: I1; conditions: Test Compound @ 10 1 M
# Muscarinic, M2 (hr) = biological target: T1, Muscarinic, M2 (hr) (Homo sapiens, UniProt P08172); experiment: Receptor binding assay: Muscarinic M2; conditions: Test Compound @ 10 1 M
# T1 construct: Novascreen (contract assay)
# T1 sequence (P08172 whole entry): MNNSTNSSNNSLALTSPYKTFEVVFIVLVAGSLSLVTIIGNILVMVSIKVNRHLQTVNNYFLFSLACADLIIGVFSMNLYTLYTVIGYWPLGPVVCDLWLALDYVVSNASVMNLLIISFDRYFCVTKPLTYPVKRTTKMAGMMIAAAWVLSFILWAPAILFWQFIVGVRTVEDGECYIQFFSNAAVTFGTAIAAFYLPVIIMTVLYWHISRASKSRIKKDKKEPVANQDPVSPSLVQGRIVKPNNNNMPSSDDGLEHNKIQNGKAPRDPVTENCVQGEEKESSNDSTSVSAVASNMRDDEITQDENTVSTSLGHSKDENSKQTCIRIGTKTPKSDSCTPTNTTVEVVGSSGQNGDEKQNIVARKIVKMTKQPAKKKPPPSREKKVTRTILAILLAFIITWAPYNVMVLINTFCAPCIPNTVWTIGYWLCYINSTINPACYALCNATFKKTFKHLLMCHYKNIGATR
# Muscarinic, M3 (hr) = biological target: T2, Muscarinic, M3 (hr) (Homo sapiens, UniProt P20309); experiment: Receptor binding assay: Muscarinic M3; conditions: Test Compound @ 10 1 M
# T2 construct: Novascreen (contract assay)
# T2 sequence (P20309 whole entry): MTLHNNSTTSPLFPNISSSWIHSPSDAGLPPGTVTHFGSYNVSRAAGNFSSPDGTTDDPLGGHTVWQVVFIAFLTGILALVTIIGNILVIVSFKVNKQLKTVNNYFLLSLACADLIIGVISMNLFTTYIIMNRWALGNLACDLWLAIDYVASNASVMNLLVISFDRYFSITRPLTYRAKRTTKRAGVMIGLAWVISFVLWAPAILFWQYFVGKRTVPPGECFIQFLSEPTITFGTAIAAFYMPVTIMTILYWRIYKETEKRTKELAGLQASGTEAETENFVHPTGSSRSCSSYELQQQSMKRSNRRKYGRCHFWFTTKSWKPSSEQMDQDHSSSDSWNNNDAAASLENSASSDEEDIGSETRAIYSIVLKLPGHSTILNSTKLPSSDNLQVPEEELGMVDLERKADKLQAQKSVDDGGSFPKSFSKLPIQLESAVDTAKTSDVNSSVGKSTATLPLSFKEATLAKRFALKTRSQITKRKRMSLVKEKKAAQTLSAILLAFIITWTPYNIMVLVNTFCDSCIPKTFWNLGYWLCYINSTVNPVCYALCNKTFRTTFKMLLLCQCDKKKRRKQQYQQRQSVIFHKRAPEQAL
# Muscarinic, M4 (hr) = biological target: T3, Muscarinic, M4 (hr) (Homo sapiens, UniProt P08173); experiment: Receptor binding assay: Muscarinic M4; conditions: Test Compound @ 10 1 M
# T3 construct: Novascreen (contract assay)
# T3 sequence (P08173 whole entry): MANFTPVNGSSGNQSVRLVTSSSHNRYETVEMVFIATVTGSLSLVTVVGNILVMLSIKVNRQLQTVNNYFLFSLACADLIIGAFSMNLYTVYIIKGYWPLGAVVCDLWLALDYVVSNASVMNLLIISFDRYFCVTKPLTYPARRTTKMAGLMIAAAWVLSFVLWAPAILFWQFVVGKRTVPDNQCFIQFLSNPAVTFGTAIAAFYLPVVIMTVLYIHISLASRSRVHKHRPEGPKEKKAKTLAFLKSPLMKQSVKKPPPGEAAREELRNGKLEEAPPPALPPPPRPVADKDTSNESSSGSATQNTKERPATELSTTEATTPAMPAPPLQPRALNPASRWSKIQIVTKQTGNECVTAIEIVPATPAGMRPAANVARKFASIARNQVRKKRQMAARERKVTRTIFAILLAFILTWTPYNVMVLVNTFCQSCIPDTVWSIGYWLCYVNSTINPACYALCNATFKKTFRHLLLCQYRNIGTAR
# Opiate, Delta 2 (hr) = biological target: T4, Opiate, Delta 2 (hr) (Homo sapiens, UniProt P41143); experiment: Receptor binding assay: Opiate Delta 2; conditions: Test Compound @ 10 1 M
# T4 construct: Novascreen (contract assay)
# T4 sequence (P41143 whole entry): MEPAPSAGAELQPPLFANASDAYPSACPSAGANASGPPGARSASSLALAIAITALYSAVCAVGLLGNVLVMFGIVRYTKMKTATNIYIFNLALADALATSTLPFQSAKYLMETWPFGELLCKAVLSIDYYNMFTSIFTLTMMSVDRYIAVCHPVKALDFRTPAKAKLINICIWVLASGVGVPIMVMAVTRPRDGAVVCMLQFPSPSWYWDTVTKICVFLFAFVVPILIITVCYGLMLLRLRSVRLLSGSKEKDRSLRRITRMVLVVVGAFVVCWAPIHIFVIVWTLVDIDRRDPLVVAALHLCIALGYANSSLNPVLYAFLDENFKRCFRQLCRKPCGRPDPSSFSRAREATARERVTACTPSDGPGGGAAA
# Opiate, Mu (hr) = biological target: T5, Opiate, Mu (hr) (Homo sapiens, UniProt P35372); experiment: Receptor binding assay: Opiate Mu; conditions: Test Compound @ 10 1 M
# T5 construct: Novascreen (contract assay)
# Oxidase, MAO-A, Central = biological target: T6, Oxidase, MAO-A, Central (Rattus norvegicus, UniProt P21396); experiment: Receptor binding assay: Oxidase MAO-A central (first line); conditions: Test Compound @ 10 1 M
# T6 construct: Novascreen (contract assay)
# T6 sequence (P21396 whole entry): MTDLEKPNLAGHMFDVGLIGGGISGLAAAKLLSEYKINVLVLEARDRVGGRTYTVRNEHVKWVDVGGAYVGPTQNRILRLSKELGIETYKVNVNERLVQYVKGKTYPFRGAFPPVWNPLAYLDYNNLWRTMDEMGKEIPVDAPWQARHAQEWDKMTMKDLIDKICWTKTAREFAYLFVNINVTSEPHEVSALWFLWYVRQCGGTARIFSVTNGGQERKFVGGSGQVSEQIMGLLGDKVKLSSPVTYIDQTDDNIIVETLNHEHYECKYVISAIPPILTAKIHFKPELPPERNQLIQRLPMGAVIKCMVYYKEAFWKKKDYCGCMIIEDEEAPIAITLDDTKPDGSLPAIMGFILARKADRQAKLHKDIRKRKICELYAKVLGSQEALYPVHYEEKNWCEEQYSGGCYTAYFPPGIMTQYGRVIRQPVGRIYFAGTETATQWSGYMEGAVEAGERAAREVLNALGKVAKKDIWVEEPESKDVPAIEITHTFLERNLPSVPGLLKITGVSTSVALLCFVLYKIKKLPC
# [3] = system: Serotonin, 5HT1, non-selective; experiment: Receptor binding assay: Serotonin 5HT1 non-selective; conditions: Test Compound @ 10 1 M
# Serotonin, 5HT2A (h) = biological target: T7, Serotonin, 5HT2A (h) (Homo sapiens, UniProt P28223); experiment: Receptor binding assay: Serotonin 5HT2A; conditions: Test Compound @ 10 1 M
# T7 construct: Novascreen (contract assay)
# T7 sequence (P28223 whole entry): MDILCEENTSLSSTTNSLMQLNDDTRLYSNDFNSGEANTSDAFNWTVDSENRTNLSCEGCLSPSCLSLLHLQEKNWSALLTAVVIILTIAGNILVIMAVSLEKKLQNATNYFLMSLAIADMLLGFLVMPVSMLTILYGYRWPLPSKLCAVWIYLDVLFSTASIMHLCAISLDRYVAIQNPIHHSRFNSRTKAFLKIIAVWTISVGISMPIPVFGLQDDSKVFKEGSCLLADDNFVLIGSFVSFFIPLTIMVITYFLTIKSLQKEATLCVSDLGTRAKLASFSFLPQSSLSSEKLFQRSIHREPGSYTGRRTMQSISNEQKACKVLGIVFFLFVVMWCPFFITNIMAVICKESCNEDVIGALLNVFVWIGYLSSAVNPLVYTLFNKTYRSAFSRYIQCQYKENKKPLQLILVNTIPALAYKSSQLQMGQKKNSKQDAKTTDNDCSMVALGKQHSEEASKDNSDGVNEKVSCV
# Serotonin, 5HT6 (hr) = Serotonin, 5HT6 (hr) (Homo sapiens, UniProt P50406); experiment: Receptor binding assay: Serotonin 5HT6; conditions: Test Compound @ 10 1 M
# Serotonin, 5HT6 (hr), sequence (P50406 whole entry): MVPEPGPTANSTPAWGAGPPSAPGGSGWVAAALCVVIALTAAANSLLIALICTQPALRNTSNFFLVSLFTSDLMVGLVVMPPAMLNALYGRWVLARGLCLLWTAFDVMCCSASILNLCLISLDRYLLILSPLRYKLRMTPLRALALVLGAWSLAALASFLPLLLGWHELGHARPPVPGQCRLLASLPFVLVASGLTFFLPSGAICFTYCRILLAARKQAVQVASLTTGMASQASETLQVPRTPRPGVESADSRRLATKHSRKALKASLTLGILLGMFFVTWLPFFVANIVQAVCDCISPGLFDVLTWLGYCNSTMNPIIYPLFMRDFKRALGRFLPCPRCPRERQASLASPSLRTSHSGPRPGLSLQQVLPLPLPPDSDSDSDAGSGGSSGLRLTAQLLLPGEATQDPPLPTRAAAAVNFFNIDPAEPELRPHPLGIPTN
# Sigma 1 = experiment: Receptor binding assay: Sigma 1; conditions: Test Compound @ 10 1 M
# Pharmacokinetics in dog = assay type: in vivo; conditions: plasma, male dogs
# Experimental: Preclinical pharmacokinetics of 1-[2-dimethylamino-1-(4-phenol)ethyl]-cis-1,4-cyclohexandiol was determined after a single 2.5 mg/kg IV bolus and 7.5 mg/kg oral dose in male dogs. […] The oral bioavailability was high (60%).
# cortical 5-HT = experiment: Microdialysis study, rat dorsal lateral frontal cortex; assay type: in vivo; conditions: male Sprague-Dawley rats, 30 mg/kg, combined with 5-HT1A antagonist WAY-100635 (0.3 mg/kg, s.c.) given 20 min before
# Experimental: 1-[2-dimethylamino-1-(4-phenol)ethyl]-cis-1,4-cyclohexandiol was evaluated in a microdialysis study conducted in male Sprague-Dawley rats [M T Taber et al, Differential effects of coadministration of fluoxetine and WAY-100635 on serotonergic neurotransmission in vivo: sensitivity to sequence of injections, Synapse, 2000 October; 38(1):17-26.] This technique can capture the neurochemical effects of compounds in the brains of freely-moving rodents. The effects of 1-[2-dimethylamino-1-(4-phenol)ethyl]-cis-1,4-cyclohexandiol were studied in the rat dorsal lateral frontal cortex, a brain region thought to be involved in etiology and/or treatment of depression. To see whether any effects on serotonin could be observed, the compound (30 mg/kg, sc) was tested in combination with the selective 5-HT1A antagonist, N-[2-[4-(2-methoxyphenyl)-1-piperazinyl] ethyl]-N-(2-pyridinyl)cyclohexanecarboxamide (WAY-100635). […]
# • 24 hr post-operative recovery • 3 hr equilibration after probe insertion • 1 hr 40 min baseline • 5-HT1A antagonist N-[2-[4-(2-methoxyphenyl)-1-piperazinyl]ethyl]-N-(2-pyridinyl)cyclohexanecarboxamide [WAY-100635] (0.3 mg/kg, s.c.) given 20 min before 1-[2-dimethylamino-1-(4-phenol)ethyl]-cis-1,4-cyclohexandiol (30 mg/kg, […]) Sample Collection: Samples collected for 3 hr 2 min post-injections Analysis: 5-HT levels quantified by HPLC-ECD
smiles,measurement,setting,value
"CN(C)CC(c1ccc(O)cc1)C1(O)CCC(O)CC1 (stereo not drawn) [1-[2-dimethylamino-1-(4-phenol)ethyl]-cis-1,4-cyclohexandiol]",pH-Solubility,pH-Solubility; Final pH 1.4,Final pH 1.4 24.2 mg/ml
same,pH-Solubility,pH-Solubility; Final pH 3.99,Final pH 3.99 24.1 mg/ml
same,pH-Solubility,pH-Solubility; Final pH 5.79,Final pH 5.79 26.7 mg/ml
same,pH-Solubility,pH-Solubility; Final pH 8.4,Final pH 8.4 22.7 mg/ml
same,"Solution Stability, time stable",[1],The compound was stable for at least 24 hours
same,efflux activity,"CACO-2 cells; CACO-2, from B:A ratio",no efflux activity
same,permeability classification,"CACO-2 cells; CACO-2, versus propranolol reference",high permeability
same,Receptor Binding % Inhibition,Adenosine A2A (hr),7.68%
same,Receptor Binding % Inhibition,"Adrenergic, Alpha 1B",11.27%
same,inhibition at 10 µM,"Adrenergic, Beta 1 (hr)",7.65%
same,inhibition at 10 µM,"Cannabinoid, CB2 (hr)",15.7%
same,Receptor Binding % Inhibition,"Glutamate, Kainate Site",−0.51%
same,Receptor Binding % Inhibition,[2],−2.38%
same,Receptor Binding % Inhibition,"Imidazoline, I1",17.43%
same,inhibition at 10 µM,"Muscarinic, M2 (hr)",12%
same,inhibition at 10 µM,"Muscarinic, M3 (hr)",0.11%
same,inhibition at 10 µM,"Muscarinic, M4 (hr)",-3.52%
same,inhibition at 10 µM,"Opiate, Delta 2 (hr)",12.2%
same,inhibition at 10 µM,"Opiate, Mu (hr)",-0.35%
same,inhibition at 10 µM,"Oxidase, MAO-A, Central",-0.11%
same,Receptor Binding % Inhibition,[3],5.09%
same,inhibition at 10 µM,"Serotonin, 5HT2A (h)",3.7%
same,inhibition at 10 µM,"Serotonin, 5HT6 (hr)",17.1%
same,Receptor Binding % Inhibition,Sigma 1,2.96%
same,bioavailability,Pharmacokinetics in dog; 7.5 mg/kg oral vs 2.5 mg/kg IV,60%
same,clearance,Pharmacokinetics in dog; single 2.5 mg/kg IV bolus,~7 mL/min/kg
same,half-life,"Pharmacokinetics in dog; single 2.5 mg/kg IV bolus, read-out: apparent terminal half-life (t1/2) (converted)",5.6 h
same,Vd,"Pharmacokinetics in dog; single 2.5 mg/kg IV bolus, read-out: apparent volume of distribution (VSS)",1.9 L/kg
same,half-life,"Pharmacokinetics in dog; single oral dose of 7.5 mg/kg, read-out: terminal oral half-life (converted)",6 h
same,cortical 5-HT levels,cortical 5-HT,Robust elevations
